We go through three compounds from patent US20260193295A1, “CILAGICIN COMPOUNDS AND METHODS OF USE THEREOF” (priority 2022, published 2026).

One data set has as its system Clostridium difficile. Put plainly: MIC assay (broth microdilution). It counts as cell-based. Conditions: C. difficile HM89. Here is the method: (§1) MIC assay were conducted using the protocol recommended by the Clinical and Laboratory Standards Institute.(37) Culture conditions (temperature, medium) are detailed in Table 3. All compounds were dissolved in sterile DMSO (ATCC, USA) to give a concentration of 6.4 mg/mL. Vancomycin hydrochloride was used as positive controls. Tested compounds were serially diluted across 96-well plates using a 2-fold serial dilution in a volume of 50 μL. An overnight culture of an assay strain was diluted 5,000-fold in fresh medium. 50 μL of this dilution was added into each well, giving a final volume of 100 μL in each well. Compounds were assayed at concentrations ranging from 64 μg/mL to 0.06 μg/mL. The top and bottom rows of each plate were filled with 100 μL of media to avoid edge effects. […] For Clostridium difficile plates were statically incubated under anaerobic conditions (Vinyl anaerobic chamber, 37° C., 5% H2, 5% CO2, 90% N2). For Streptococcus pneumoniae plates were statically incubated under aerobic conditions supplemented with 5% C02 (37° C.). All MICs were performed in technical duplicate (n=2) and repeated three independent times (n=3).
Background: Dilution methods test growth across graded concentrations, often in twofold steps.

Another data set relates to HEK293 cells. It counts as cell-based, human. As for the experimental part: The cytotoxicity of […] analogs was tested using an MTT (3-(4,5-Dimethyl-2-thiazolyl)-2,5-diphenyl-2H-tetrazolium bromide) assay as previously described ([…] et al., 2006, […]7). HEK293 cells were seeded in a 96-well plate with a density of 5,000 cells/well and cultured in Dulbecco's Modified Eagle Medium (DMEM) supplemented with 10% fetal bovine serum, 1% Pen/Strep and 1% glutamate for 24 hours at 37° C. with 5% CO2. […] After 48 hours of incubation, the media was removed and 110 μL of freshly prepared MTT solution (0.45 mg/mL in DPBS) was added to each well. The plates were incubated for 3 hours at 37° C. with 5% C02 after which the MTT solution was removed by aspiration. […] The absorbance of each well was measured at OD570nm using a microplate reader (Infinite 200 PRO, Tecan). […] All the experiments were performed in triplicates (n=3) and repeated two independent times (n=2).

Another data set relates to Enterococcus faecium. Type of data set: cell-based. Here is the method:
as §1

The test system of another data set is Staphylococcus aureus. It counts as cell-based. Here is the method: as §1
The subject of the next data set is Streptococcus agalactiae. It counts as cell-based. As for the experimental part: as §1
A further data set relates to Streptococcus pneumoniae. Type of data set: cell-based. As for the experimental part:
as §1

In another data set the test system is Streptococcus pyrogens. It counts as cell-based. As for the experimental part:
as §1

The test system of data set [1] is red blood cell (5% sheep blood agar plate). Type of data set: cell-based. Here is the method: The hemolytic activity of cilagicin was evaluated using a red blood cell disc diffusion assay. Cilagicin and other test compounds were dissolved in 10% DMSO to give concentrations ranging from 100 μg/mL to 12.5 μg/mL. 10% (v/v) Triton X-100 and 10% DMSO were used as positive and vehicle controls, respectively. 20 μL of each serially diluted compound was infused on a sterile disc. Infused discs were overlaid on the surface of a 5% sheep blood agar plate (Hardy diagnostics, USA) and incubated at 20° C. for 24 hours. The size of the transparent ring that appeared in the agar plate was measured to determine hemolytic activity. Experiments were performed two independent times. A representative picture was taken of one experiment.

The test system of data set [2] is S. aureus USA300. Put plainly: Neutropenic thigh infection model in mice. It counts as in vivo, Staphylococcus aureus. Conditions: neutropenic mouse thigh model, S. aureus USA300, 40 mg/kg thrice daily (TID) IP, 24 hours post infection. Here is the method: Mice were randomly housed in individually ventilated cages (IVC). The room was set on a twelve-hour light cycle and the temperature was set to 70° F. The humidity was set to 30%. To initiate the neutropenic model, mice were injected with 150 mg/kg and 100 mg/kg of cyclophosphamide via intraperitoneal (IP) injection on days −4 and −1, respectively. On day −1, a single colony of S. aureus USA300 was grown in 15 mL of cation adjusted Mueller Hinton (MH) broth at 37° C. with shaking overnight. On day 0, cells were centrifuged, washed twice in 0.9% sterile saline, and resuspended in sterile 0.9% saline solution to give final optical density (600 nm) of 0.1. 50 μL of bacteria suspension was injected into both thighs via intramuscular (IM) injection. This provides a challenge inoculum of approximately 1.0×10^6 CFU in each thigh in a volume of 50 μL. At 2 hours post infection, mice were given 200 μL of vehicle (10% DMSO), vancomycin (40 mg/kg, 10% DMSO) or cilagicin BP (40 mg/kg, 10% DMSO) at 2, 10, and 18 hours post infection via IP injection. Mice in the pretreatment group (n=4 mice/n=8 thighs) were humanely euthanized by CO2 narcosis to determine the starting thigh bacterial burden. […] All graphic data are expressed as data points by group and were statistically analyzed using Prism software (Prism 9). […]

A further data set concerns S. pyrogens ATCC19615. Put plainly: Neutropenic thigh infection model in mice. It counts as in vivo, Streptococcus pyrogens. Conditions: neutropenic mouse thigh model.
Data set [3] has as its system S. aureus USA300. Put plainly: Resistance studies (daily serial passage at sub-MIC). Conditions: daily serial passage at sub-MIC levels of antibiotic. Type of data set: cell-based, Staphylococcus aureus. As for the experimental part:
A single colony of S. aureus USA300 was inoculated in 5 mL LB broth and grown overnight at 37° C. with continuous shaking (200 rpm). The overnight culture was then diluted 1:5,000 into fresh LB. 50 μL aliquots of dilute cells were transferred into individual wells of 96-well plates containing 50 μL of serially diluted cilagicin, amphomycin (AG Scientific, USA) or bacitracin (Sigma, USA). Plates were statically incubated at 37° C. After 24 hours, the MIC was recorded. […] The MIC was determined as described above. This process was repeated daily for 25 days. For bacitracin, the LB medium was supplemented with 50 μg/mL ZnCl2. For amphomycin, the medium was supplemented with 100 μg/mL CaCl2-2H2O. Experiments were performed three independent times (n=3).

≈ marks a conversion by molar mass, not a printed value. Positions of bridges follow the written chain, without caps; N, C: chain ends. Non-standard residues stand in square brackets, D forms with d. Residues, ends and D or L forms follow the SMILES beside them. *: point of attachment. Ileψ(thiazoline)Cys = CC[C@H](C)[C@H](N)C1=N[C@H](C(=O)*)CS1; Benzoyl(4-Ph) = O=C(c1ccc(-c2ccccc2)cc1)*; dOrn = NCCC[C@@H](N)C(=O)O; dDab = NCC[C@@H](N)C(=O)O; Dab = NCC[C@H](N)C(=O)O

What is called MIC is the smallest concentration in the dilution series that meets the test's criterion for growth inhibition. Consider `CC(C)[C@@H]1NC(=O)[C@H](Cc2ccc(O)cc2)NC(=O)CNC(=O)[C@@H](CC(=O)O)NC(=O)[C@@H](CC(N)=O)NC(=O)CNC(=O)[C@H](CC(=O)O)NC(=O)[C@@H](CCN)NC(=O)[C@@H](NC(=O)[C@@H](CO)NC(=O)c2ccc(-c3ccccc3)cc2)[C@@H](C)OC(=O)[C@H](Cc2ccccc2)NC(=O)[C@H](CCN)NC1=O` [Cilagicin BP] ({Benzoyl(4-Ph)}-[dS]T[dDab]DG[dN][dD]GYV[Dab]F; ester 2-C), for which the MIC is 16 mg/L (≈ 11.1 µM) against Clostridium difficile; over 64 mg/L with Enterococcus faecium; 4 mg/L (≈ 2.78 µM) against Staphylococcus aureus; 16 mg/L (≈ 11.1 µM) against Streptococcus agalactiae; 4 mg/L (≈ 2.78 µM) in the data set with Streptococcus pneumoniae; 1 mg/L (≈ 0.696 µM) with Streptococcus pyrogens. Moreover, in the data set with HEK293 cells, the human cell cytotoxicity result is given as “no human cell cytotoxicity”. The “antibacterial activity (MIC) in the presence of serum” value with Staphylococcus aureus (S. aureus, presence versus absence of serum (10% serum)) is reported as “no increase in MIC”. For the same compound, the hemolytic activity entry in [1] is listed as “no hemolytic activity”. For the same compound, the “reduction in colony forming units (CFU) compared to the vehicle control” value with S. aureus USA300 [2] is reported as about 4 log10. In the data set with S. pyrogens ATCC19615 (S. pyrogens ATCC19615, 40 mg/kg TID IP, 24 hours post infection), the “reduction in bacterial burden compared to the vehicle control” value was over 5 log10. In addition, the “reduction of bacterial burden compared with vancomycin” value in the data set with S. pyrogens ATCC19615 (S. pyrogens, both 40 mg/kg TID) was “more than a log greater reduction of bacterial burden than vancomycin”.
Consider `CC[C@H](C)[C@H](N)C1=N[C@H](C(=O)N[C@@H](CC(C)C)C(=O)N[C@H](CCC(=O)O)C(=O)N[C@H](C(=O)N[C@H]2CCCCNC(=O)[C@H](CC(N)=O)NC(=O)[C@@H](CC(=O)O)NC(=O)[C@H](Cc3cnc[nH]3)NC(=O)[C@@H](Cc3ccccc3)NC(=O)[C@H]([C@@H](C)CC)NC(=O)[C@@H](CCCN)NC2=O)[C@@H](C)CC)CS1` [bacitracin] ({Ileψ(thiazoline)Cys}-L[dE]IK[dOrn]I[dF]H[dD]N; lactam 4-C), for which the “development of resistance by S. aureus” value with S. aureus USA300 [3] was “rapidly developed resistance”.
In the case of amphomycin, the “development of resistance by S. aureus” value in the data set with S. aureus USA300 [3] is “rapidly developed resistance”.
